Measured values: patent US11178869B2, “Microbiocidal quinoline (thio)carboxamide derivatives” (priority 2017, dated 2021)
Read-outs that look alike come from different tables or passages of the source.

How the values were obtained:
[1] = tested on: Botryotinia fuckeliana (Botrytis cinerea); test: Botryotinia fuckeliana (Botrytis cinerea) / liquid culture (gray mould); assay type: cell-based; details: 72 h, 200 ppm, compared to untreated control, growth inhibition photometrically 3-4 days after application, read-out: disease control
Fusarium culmorum [2] = test: microbe, parasite or virus in culture; assay type: cell-based; details: read-out: disease control
[3] = tested on: Glomerella lagenarium (Colletotrichum lagenarium); test: Glomerella lagenarium (Colletotrichum lagenarium) / liquid culture (anthracnose); assay type: cell-based; details: Colletotrichum orbiculare, read-out: disease control
[4] = tested on: Monographella nivalis (Microdochium nivale); test: Monographella nivalis (Microdochium nivale) / liquid culture (foot rot cereals); assay type: cell-based; details: 200 ppm, compared to untreated control, growth inhibition photometrically 4-5 days after application, read-out: disease control
Fusarium culmorum [5] = test: whole plant or invertebrate; assay type: in vivo, Fusarium culmorum on wheat spikelets cv. Monsun; details: in Triticum aestivum, 144 h, read-out: control of Fusarium culmorum
[6] = 200 ppm, compared to untreated control, growth inhibition photometrically 3-4 days after application

C#CCC(C)(CC(C)C)NC(=O)c1cnc2c(F)cccc2c1 (stereo not shown) [Compound E-2, 8-fluoro-N-(1-isobutyl-1-methyl-but-3-ynyl)quinoline-3-carboxamide]
≥ 80%: inhibition of growth at 200 ppm [1] | inhibition of growth at 200 ppm (Fusarium culmorum [2]) | inhibition of growth at 200 ppm [3, 6]

CC(C)(C#Cc1ccccc1F)NC(=O)c1cnc2c(F)cccc2c1 [Compound F-18, 8-fluoro-N-[3-(2-fluorophenyl)-1,1-dimethyl-prop-2-ynyl]quinoline-3-carboxamide]
≥ 80%: inhibition of growth at 200 ppm [1] | inhibition of growth at 200 ppm (Fusarium culmorum [2]) | inhibition of growth at 200 ppm [3, 6] | inhibition of growth at 200 ppm [4]

Cc1ccc(C#N)cc1C#CC(C)(C)NC(=O)c1cnc2c(F)cccc2c1 [Compound F-19, N-[3-(5-cyano-2-methyl-phenyl)-1,1-dimethyl-prop-2-ynyl]-8-fluoro-quinoline-3-carboxamide]
≥ 80%: inhibition of growth at 200 ppm [1] | inhibition of growth at 200 ppm (Fusarium culmorum [2]) | inhibition of growth at 200 ppm [3, 6] | inhibition of growth at 200 ppm [4]

CC(C)(C#Cc1ccc(F)c(F)c1)NC(=O)c1cnc2c(F)cccc2c1 [Compound F-20, N-[3-(3,4-difluorophenyl)-1,1-dimethyl-prop-2-ynyl]-8-fluoro-quinoline-3-carboxamide]
≥ 80%: inhibition of growth at 200 ppm [1] | inhibition of growth at 200 ppm (Fusarium culmorum [2]) | inhibition of growth at 200 ppm [3, 6] | inhibition of growth at 200 ppm [4]

Cc1ccc(C)c(C#CC(C)(C)NC(=O)c2cnc3c(F)cccc3c2)c1 [Compound F-22, N-[3-(2,5-dimethylphenyl)-1,1-dimethyl-prop-2-ynyl]-8-fluoro-quinoline-3-carboxamide]
≥ 80%: inhibition of growth at 200 ppm [1] | inhibition of growth at 200 ppm (Fusarium culmorum [2]) | inhibition of growth at 200 ppm [3, 6]

Cc1cccc(C#CC(C)(C)NC(=O)c2cnc3c(F)cccc3c2)c1C [Compound F-26, N-[3-(2,3-dimethylphenyl)-1,1-dimethyl-prop-2-ynyl]-8-fluoro-quinoline-3-carboxamide]
≥ 80%: inhibition of growth at 200 ppm [1] | inhibition of growth at 200 ppm (Fusarium culmorum [2]) | inhibition of growth at 200 ppm [3, 6] | inhibition of growth at 200 ppm [4]

CC(C)(C#Cc1ccc(F)cc1)NC(=O)c1cnc2c(F)cccc2c1 [Compound F-27, 8-fluoro-N-[3-(4-fluorophenyl)-1,1-dimethyl-prop-2-ynyl]quinoline-3-carboxamide]
≥ 80%: inhibition of growth at 200 ppm [1] | inhibition of growth at 200 ppm (Fusarium culmorum [2]) | inhibition of growth at 200 ppm [3, 6] | inhibition of growth at 200 ppm [4]

COc1ccc(C#CC(C)(C)NC(=O)c2cnc3c(F)cccc3c2)cc1 [Compound F-28, 8-fluoro-N-[3-(4-methoxyphenyl)-1,1-dimethyl-prop-2-ynyl]quinoline-3-carboxamide]
≥ 80%: inhibition of growth at 200 ppm [1] | inhibition of growth at 200 ppm (Fusarium culmorum [2]) | inhibition of growth at 200 ppm [3, 6] | inhibition of growth at 200 ppm [4] | pest or weed control at 200 ppm (Fusarium culmorum [5])

Cc1cc(C)cc(C#CC(C)(C)NC(=O)c2cnc3c(F)cccc3c2)c1 [Compound F-30, N-[3-(3,5-dimethylphenyl)-1,1-dimethyl-prop-2-ynyl]-8-fluoro-quinoline-3-carboxamide]
≥ 80%: inhibition of growth at 200 ppm [1] | inhibition of growth at 200 ppm (Fusarium culmorum [2]) | inhibition of growth at 200 ppm [3, 6] | inhibition of growth at 200 ppm [4]

Cc1ccc(C#CC(C)(C)NC(=O)c2cnc3c(F)cccc3c2)cc1C [Compound F-32, N-[3-(3,4-dimethylphenyl)-1,1-dimethyl-prop-2-ynyl]-8-fluoro-quinoline-3-carboxamide]
≥ 80%: inhibition of growth at 200 ppm [1] | inhibition of growth at 200 ppm (Fusarium culmorum [2]) | inhibition of growth at 200 ppm [3, 6] | inhibition of growth at 200 ppm [4]

Cc1ccc(C#CC(C)(C)NC(=O)c2cnc3c(F)cccc3c2)c(C)c1 [Compound F-33, N-[3-(2,4-dimethylphenyl)-1,1-dimethyl-prop-2-ynyl]-8-fluoro-quinoline-3-carboxamide]
≥ 80%: inhibition of growth at 200 ppm [1] | inhibition of growth at 200 ppm (Fusarium culmorum [2]) | inhibition of growth at 200 ppm [3, 6] | inhibition of growth at 200 ppm [4]

Cc1cc(C#N)ccc1C#CC(C)(C)NC(=O)c1cnc2c(F)cccc2c1 [Compound F-34, N-[3-(4-cyano-2-methyl-phenyl)-1,1-dimethyl-prop-2-ynyl]-8-fluoro-quinoline-3-carboxamide]
≥ 80%: inhibition of growth at 200 ppm [1] | inhibition of growth at 200 ppm (Fusarium culmorum [2]) | inhibition of growth at 200 ppm [4]

CC(C)(C#Cc1cccc(C#N)c1)NC(=O)c1cnc2c(F)cccc2c1 [Compound F-36, N-[3-(3-cyanophenyl)-1,1-dimethyl-prop-2-ynyl]-8-fluoro-quinoline-3-carboxamide]
≥ 80%: inhibition of growth at 200 ppm [1] | inhibition of growth at 200 ppm (Fusarium culmorum [2]) | inhibition of growth at 200 ppm [4]

COc1ccccc1C#CC(C)(C)NC(=O)c1cnc2c(F)cccc2c1 [Compound F-37, 8-fluoro-N-[3-(2-methoxyphenyl)-1,1-dimethyl-prop-2-ynyl]quinoline-3-carboxamide]
≥ 80%: inhibition of growth at 200 ppm [1] | inhibition of growth at 200 ppm (Fusarium culmorum [2]) | inhibition of growth at 200 ppm [3, 6] | inhibition of growth at 200 ppm [4]

COc1cc(C#CC(C)(C)NC(=O)c2cnc3c(F)cccc3c2)ccc1Cl [Compound F-38, N-[3-(4-chloro-3-methoxy-phenyl)-1,1-dimethyl-prop-2-ynyl]-8-fluoro-quinoline-3-carboxamide]
≥ 80%: inhibition of growth at 200 ppm [1] | inhibition of growth at 200 ppm (Fusarium culmorum [2]) | inhibition of growth at 200 ppm [3, 6] | inhibition of growth at 200 ppm [4]

Cc1cccc(C#CC(C)(C)NC(=O)c2cnc3c(F)cccc3c2)c1 [Compound F-39, N-[1,1-dimethyl-3-(m-tolyl)prop-2-ynyl]-8-fluoro-quinoline-3-carboxamide]
≥ 80%: inhibition of growth at 200 ppm [1] | inhibition of growth at 200 ppm (Fusarium culmorum [2]) | inhibition of growth at 200 ppm [3, 6] | inhibition of growth at 200 ppm [4] | pest or weed control at 200 ppm (Fusarium culmorum [5])

CC(C)(C#Cc1cc(F)cc(F)c1)NC(=O)c1cnc2c(F)cccc2c1 [Compound F-40, N-[3-(3,5-difluorophenyl)-1,1-dimethyl-prop-2-ynyl]-8-fluoro-quinoline-3-carboxamide]
≥ 80%: inhibition of growth at 200 ppm [1] | inhibition of growth at 200 ppm (Fusarium culmorum [2]) | inhibition of growth at 200 ppm [3, 6] | inhibition of growth at 200 ppm [4] | pest or weed control at 200 ppm (Fusarium culmorum [5])

CC(C)(C#Cc1ccccc1C#N)NC(=O)c1cnc2c(F)cccc2c1 [Compound F-41, N-[3-(2-cyanophenyl)-1,1-dimethyl-prop-2-ynyl]-8-fluoro-quinoline-3-carboxamide]
≥ 80%: inhibition of growth at 200 ppm [1] | inhibition of growth at 200 ppm (Fusarium culmorum [2]) | inhibition of growth at 200 ppm [3, 6] | inhibition of growth at 200 ppm [4]

CC(C)(C#Cc1ccc(C(F)(F)F)cc1)NC(=O)c1cnc2c(F)cccc2c1 [Compound F-42, N-[1,1-dimethyl-3-[4-(trifluoromethyl)phenyl]prop-2-ynyl]-8-fluoro-quinoline-3-carboxamide]
≥ 80%: inhibition of growth at 200 ppm [1] | inhibition of growth at 200 ppm (Fusarium culmorum [2]) | inhibition of growth at 200 ppm [3, 6] | inhibition of growth at 200 ppm [4]

COc1ccc(C(F)(F)F)cc1C#CC(C)(C)NC(=O)c1cnc2c(F)cccc2c1 [Compound F-43, 8-fluoro-N-[3-[2-methoxy-5-(trifluoromethyl)phenyl]-1,1-dimethyl-prop-2-ynyl]quinoline-3-carboxamide]
≥ 80%: inhibition of growth at 200 ppm [1] | inhibition of growth at 200 ppm (Fusarium culmorum [2]) | inhibition of growth at 200 ppm [3, 6]

CC#CC(C)(C)NC(=O)c1cnc2c(F)cccc2c1 [Compound F-53, N-(1,1-dimethylbut-2-ynyl)-8-fluoro-quinoline-3-carboxamide]
≥ 80%: inhibition of growth at 200 ppm (Fusarium culmorum [2]) | inhibition of growth at 200 ppm [3]

C[C@@](CC#CC1CC1)(CC(F)(F)F)NC(=O)c1cnc2c(F)cccc2c1 [Compound G-1, N-[(1R)-4-cyclopropyl-1-methyl-1-(2,2,2-trifluoroethyl)but-3-ynyl]-8-fluoro-quinoline-3-carboxamide]
≥ 80%: inhibition of growth at 200 ppm [1] | inhibition of growth at 200 ppm (Fusarium culmorum [2]) | inhibition of growth at 200 ppm [4]

C[C@](CC#CC1CC1)(CC(F)(F)F)NC(=O)c1cnc2c(F)cccc2c1 [Compound G-2, N-[(1S)-4-cyclopropyl-1-methyl-1-(2,2,2-trifluoroethyl)but-3-ynyl]-8-fluoro-quinoline-3-carboxamide]
≥ 80%: inhibition of growth at 200 ppm [1] | inhibition of growth at 200 ppm (Fusarium culmorum [2])
